Test results published in patent US20120178786A9, “Use of tetramic acid derivatives for controlling pests by drenching, drip application, or dip application” (priority 2006, published 2012).

Test system: Tetranychus urticae (TETRUR)
Test: Example 4: drench of aubergine plants, Abbott efficacy
Assay type: in vivo
Details: 240 SC
Procedure: Aubergine plants (25 days after sowing) in 0.5-1-pots are drenched, in three replications, with 50 ml of active substance solution containing the active substance I-4 (cis isomer, formulation: 240 SC) at the application rate stated. The greenhouse temperature is 20° C. Infection with Aphis gossypii (APHIGO), Myzus persicae (MYZUPE) and Tetranychus urticae (TETRUR) is accomplished in each case seven and fourteen days after the application of the active substance. The test is evaluated in each case seven days after each infection by determining the activity with the aid of Abbott's formula.

SMILES: CCOC(=O)OC1=C(c2cc(C)ccc2C)C(=O)N[C@]12CC[C@@H](OC)CC2 [Example I-4]
- Abbott efficacy (%) against TETRUR (infection 7 d after application, 10 mg active substance/plant): 96%
- Abbott efficacy (%) against TETRUR (infection 7 d after application, 20 mg active substance/plant): 100%
- Abbott efficacy (%) against TETRUR (infection 14 d after application, 10 mg active substance/plant): 73%
- Abbott efficacy (%) against TETRUR (infection 14 d after application, 20 mg active substance/plant): 77%
